Tested on: 885512-296-R-J2-PDC complex spheroid growth, % test/control
Assay: Anticancer human tumor 885512-296-R-J2-PDC patient-derived breast carcinoma cell line growth inhibition [AhR]
Details: for IC50: curve of first compound; for viability, T/C: stronger effect = lower value
Description: Multicellular complex tumor spheroid response to aryl hydrocarbon receptor antagonists in combination with a variety of drugs and investigational agents in selected tumor cell lines
The current study was undertaken to assess response to aryl hydrocarbon receptor antagonists in combination with standard-of-care drugs and investigational agents in solid tumor complex spheroid models. Complex spheroids include a stromal component modeled by human endothelial cells (HUVEC) and fibroblasts modeled by human mesenchymal stem cells (MSCs). The concentration ranges selected for each drug and investigational agent were based upon clinically achievable concentrations if the clinical Cmax of the agent was known.
Compounds. The drugs and investigational agents: BAY 2416964 (NSC825713), GNF351 (NSC835774), CH-223191 (NSC835775), CPI-455 (NSC825282), aza-TdCyd (NSC777586), decitabine (NSC127716), belinostat (NSC758774), entinostat (NSC756642), pevonedistat (NSC761192), tazemetostat (NSC777109), talazoparib (NSC765396), olaparib (NSC753686), selinexor (NSC780203), nedisertib (M3814, NSC802822), bortezomib (NSC756655), venetoclax (NSC766270), doxorubicin (NSC123127), elimusertib (BAY189344, NSC800525), ceralasertib (AZD6738, NSC777638), TAK-243 (NSC785004), alisertib (NSC759677), etoposide (NSC141540), topotecan (NSC609699), eribulin (NSC707389), gemcitabine (NSC613327), carboplatin (NSC241240), cisplatin (NSC119875), and SN-38 (NSC673596) were obtained from the National Cancer Institute (NCI) Developmental Therapeutics Program Chemical Repository (32). The FDA-approved anticancer drug set is available from the Developmental Therapeutics Program at https://dtp.cancer.gov/organization/dscb/obtaining/available plates.htm. […] The stock solutions were prepared in dimethyl sulfoxide (DMSO, Sigma-Aldrich, St. Louis, MO, cat. D2650), except for the platinum compounds which were prepared in saline (Quality Biological, Gaithersburg, MD, cat. 114-055-101), at 800-fold the tested concentration and stored at -70 degrees C prior to their use. All drugs and investigational agents were tested over a range starting from a high concentration at or near the clinical Cmax and decreasing in half-log increments. If the clinical Cmax for an agent had not been determined, the highest concentration tested was 10 microM (Table 1).
Cell Culture. All cells were maintained in an incubator at 37 degrees C and 5% CO2 with 95% humidity. The PDC lines were cultured according to standard operating procedures established by the NCI PDMR (https://pdmr.cancer.gov). Briefly, all PDCs were thawed and cultured in Matrigel-coated flasks prepared with a working solution of 1X Ham's F-12 nutrient mix, without supplementation (Invitrogen, Waltham, MA, cat. 11765054), 100 U/mL penicillin-streptomycin (Invitrogen, cat. 15140122), and 2.5% Matrigel (Corning Inc., Corning, NY, cat. 354248) for the first three passages. All PDCs were cultured in complete DMEM/F-12 media containing advanced DMEM/F-12 (Invitrogen, cat. 12634028), 4.9% defined fetal bovine serum, heat inactivated (HyClone Laboratories Inc., Logan, UT, cat. SH30070.03HI), 389 ng/mL hydrocortisone (Sigma-Aldrich, cat. H4001), 9.7 ng/mL human EGF recombinant protein (Invitrogen, cat. PHG0313), 23.4 microg/mL adenine (Sigma-Aldrich, cat. A2786), 97.3 U/mL penicillin-streptomycin (Invitrogen, cat. 15140122), 1.9 mM L-glutamine (Invitrogen, cat. 25030081), and 9.7 microM Y-27632 dihydrochloride (Tocris Bioscience, Bristol, United Kingdom, cat. 1254). The PDCs were cultured in complete DMEM/F12 media without 10 microM Y-27632 dihydrochloride for at least two passages prior to the screen. The established cell lines NCI-H1341 and […] were cultured in DMEM/F-12, HEPES (Invitrogen, cat. 11330032), 5% defined fetal bovine serum (HyClone Laboratories Inc., cat. SH30070.03), ITS premix universal culture supplement [insulin (5 microg/mL), transferrin (5 microg/mL), and selenious acid (5 ng/mL)] […]

[1] = second compound 0.1 µM, first compound 0.0316 µM
[2] = second compound 0.1 µM, first compound 0.1 µM
[3] = second compound 0.1 µM, first compound 0.316 µM
[4] = second compound 0.1 µM, first compound 1 µM
[5] = second compound 0.1 µM, first compound 3.16 µM
[6] = second compound 0.1 µM, first compound 10 µM
[7] = second compound 0.316 µM, first compound 0.0316 µM
[8] = second compound 0.316 µM, first compound 0.1 µM
[9] = second compound 0.316 µM, first compound 0.316 µM
[10] = second compound 0.316 µM, first compound 1 µM
[11] = second compound 0.316 µM, first compound 3.16 µM
[12] = second compound 0.316 µM, first compound 10 µM
[13] = second compound 1 µM, first compound 0.0316 µM
[14] = second compound 1 µM, first compound 0.1 µM
[15] = second compound 1 µM, first compound 0.316 µM
[16] = second compound 1 µM, first compound 1 µM
[17] = second compound 1 µM, first compound 3.16 µM
[18] = second compound 1 µM, first compound 10 µM
[19] = second compound 3.16 µM, first compound 0.0316 µM
[20] = second compound 3.16 µM, first compound 0.1 µM
[21] = second compound 3.16 µM, first compound 0.316 µM
[22] = second compound 3.16 µM, first compound 1 µM
[23] = second compound 3.16 µM, first compound 3.16 µM
[24] = second compound 3.16 µM, first compound 10 µM
[25] = second compound 10 µM, first compound 0.0316 µM
[26] = second compound 10 µM, first compound 0.1 µM
[27] = second compound 10 µM, first compound 0.316 µM
[28] = second compound 10 µM, first compound 1 µM
[29] = second compound 10 µM, first compound 3.16 µM
[30] = second compound 10 µM, first compound 10 µM
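Note: spheroids exposed to compounds for seven days.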

| IC50 (second compound 0.1 µM) [nM] | IC50 (second compound 0.316 µM) [nM] | IC50 (second compound 1 µM) [nM] | IC50 (second compound 3.16 µM) [nM] | IC50 (second compound 10 µM) [nM] | SMILES | viability, T/C [1] [%] | viability, T/C [2] [%] | viability, T/C [3] [%] | viability, T/C [4] [%] | viability, T/C [5] [%] | viability, T/C [6] [%] | viability, T/C [7] [%] | viability, T/C [8] [%] | viability, T/C [9] [%] | viability, T/C [13] [%] | viability, T/C [14] [%] | viability, T/C [19] [%] | viability, T/C [20] [%] | viability, T/C [25] [%] | viability, T/C [26] [%] | also measured |
| --- | --- | --- | --- | --- | --- | --- | --- | --- | --- | --- | --- | --- | --- | --- | --- | --- | --- | --- | --- | --- | --- |
| 6340 | 7190 | 7580 | 7840 | 8440 | CC1(C)CCC(CN2CCN(c3ccc(C(=O)NS(=O)(=O)c4ccc(NCC5CCOCC5)c([N+](=O)[O-])c4)c(Oc4cnc5[nH]ccc5c4)c3)CC2)=C(c2ccc(Cl)cc2)C1 + CC(CO)NC(=O)c1cc(-c2ccc(Cl)cc2)nn(-c2cnn(C)c2)c1=O | 111 | 105 | 102 | 91.7 | 70.7 | 36.4 | 96.3 | 111 | 100 | 96.7 | 108 | 102 | 118 | 106 | 99.4 | viability, T/C [10]: 96.5%; viability, T/C [11]: 70.6%; viability, T/C [12]: 41.7%; viability, T/C [15]: 112%; viability, T/C [16]: 99.7%; viability, T/C [17]: 78.6%; viability, T/C [18]: 41%; viability, T/C [21]: 103%; viability, T/C [22]: 100%; viability, T/C [23]: 81.5%; viability, T/C [24]: 41.6%; viability, T/C [27]: 103%; viability, T/C [28]: 103%; viability, T/C [29]: 90.8%; viability, T/C [30]: 42.6% |
| 2440 | 234 | 456 | 1350 | > 10000 | COc1cc(Nc2ncc3c(n2)-c2ccc(Cl)cc2C(c2c(F)cccc2OC)=NC3)ccc1C(=O)O + CC(CO)NC(=O)c1cc(-c2ccc(Cl)cc2)nn(-c2cnn(C)c2)c1=O | 53 | 48.3 | 51.4 | 57.6 | 46.4 | 48.3 | 54.9 | 45.5 | 55 | 57.6 | 51.2 | 59.6 | 55.5 | 48.5 | 59.5 | viability, T/C [10]: 43.3%; viability, T/C [11]: 45%; viability, T/C [12]: 37%; viability, T/C [15]: 55.7%; viability, T/C [16]: 46.7%; viability, T/C [17]: 43%; viability, T/C [18]: 50.2%; viability, T/C [21]: 51.2%; viability, T/C [22]: 55.5%; viability, T/C [23]: 44.6%; viability, T/C [24]: 46.2%; viability, T/C [27]: 58.4%; viability, T/C [28]: 62.3%; viability, T/C [29]: 56.2%; viability, T/C [30]: 50.5% |
| > 100 | > 100 | > 100 | > 100 | > 100 | Cn1ncnc1C1c2n[nH]c(=O)c3cc(F)cc(c23)NC1c1ccc(F)cc1 (stereo not given) + CC(CO)NC(=O)c1cc(-c2ccc(Cl)cc2)nn(-c2cnn(C)c2)c1=O | 87.1 | 69.1 |  |  |  |  | 73 | 63.9 |  | 79.1 | 64.7 | 84.9 | 64.6 | 67.1 | 51.1 | viability, T/C (second compound 0.1 µM, first compound 0.000316 µM): 107%; viability, T/C (second compound 0.1 µM, first compound 0.001 µM): 108%; viability, T/C (second compound 0.1 µM, first compound 0.00316 µM): 103%; viability, T/C (second compound 0.1 µM, first compound 0.01 µM): 96.6%; viability, T/C (second compound 0.316 µM, first compound 0.000316 µM): 102%; viability, T/C (second compound 0.316 µM, first compound 0.001 µM): 96.9%; viability, T/C (second compound 0.316 µM, first compound 0.00316 µM): 98.5%; viability, T/C (second compound 0.316 µM, first compound 0.01 µM): 107%; viability, T/C (second compound 1 µM, first compound 0.000316 µM): 104%; viability, T/C (second compound 1 µM, first compound 0.001 µM): 96.4%; viability, T/C (second compound 1 µM, first compound 0.00316 µM): 101%; viability, T/C (second compound 1 µM, first compound 0.01 µM): 89.3%; viability, T/C (second compound 3.16 µM, first compound 0.000316 µM): 90.1%; viability, T/C (second compound 3.16 µM, first compound 0.001 µM): 101%; viability, T/C (second compound 3.16 µM, first compound 0.00316 µM): 107%; viability, T/C (second compound 3.16 µM, first compound 0.01 µM): 82.9%; viability, T/C (second compound 10 µM, first compound 0.000316 µM): 96.7%; viability, T/C (second compound 10 µM, first compound 0.001 µM): 97.9%; viability, T/C (second compound 10 µM, first compound 0.00316 µM): 88.9%; viability, T/C (second compound 10 µM, first compound 0.01 µM): 79.2% |
| 97 | 98.9 | 101 | 89.1 | 58.7 | NS(=O)(=O)OCC1CC(n2ccc3c(NC4CCc5ccccc54)ncnc32)CC1O (stereo not given) + CC(CO)NC(=O)c1cc(-c2ccc(Cl)cc2)nn(-c2cnn(C)c2)c1=O | 111 | 48.4 | 15 | 7.66 | 6.85 | 5.35 | 97.6 | 49.5 | 15.9 | 106 | 50.3 | 84.1 | 46.1 | 65.6 | 36.1 | viability, T/C [10]: 7.66%; viability, T/C [11]: 5.71%; viability, T/C [12]: 6.67%; viability, T/C [15]: 17.3%; viability, T/C [16]: 7.69%; viability, T/C [17]: 7.18%; viability, T/C [18]: 7.68%; viability, T/C [21]: 16.7%; viability, T/C [22]: 7.54%; viability, T/C [23]: 7.16%; viability, T/C [24]: 7.08%; viability, T/C [27]: 19.3%; viability, T/C [28]: 8.18%; viability, T/C [29]: 6.74%; viability, T/C [30]: 6.33% |

— PubChem BioAssay AID1919006 (Molecular Pharmacology Branch, DTP, NCI, 2023)
